Values joined by “and” are separate entries in the source; they are usually repeats but may differ in a detail not shown here. Equal entries are not always repeated. Where two headings read alike, the source gives them in different places.
Assays:
CDK6-CYCLIND3 = target: T1, CDK6-CYCLIND3 (Homo sapiens, UniProt Q00534); experiment: CDK inhibition assay (microfluidic LabChip, IC50 format); assay type: biochemical; conditions: Table 4a; read-out: CDK6 CyclinD3 IC50
T1 construct: purchased Carna

CDK2-CYCLINA = target: T2, CDK2-CYCLINA (Homo sapiens, UniProt P24941); experiment: as above; assay type: biochemical; conditions: read-out: CDK2 CyclinA IC50
T2 construct: purchased Millipore

CDK9-CYCLINT1 = target: T3, CDK9-CYCLINT1 (Homo sapiens, UniProt P50750); experiment: as above; assay type: biochemical; conditions: read-out: CDK9 CyclinT1 IC50
T3 construct: purchased Carna
T3 sequence (P50750 whole entry): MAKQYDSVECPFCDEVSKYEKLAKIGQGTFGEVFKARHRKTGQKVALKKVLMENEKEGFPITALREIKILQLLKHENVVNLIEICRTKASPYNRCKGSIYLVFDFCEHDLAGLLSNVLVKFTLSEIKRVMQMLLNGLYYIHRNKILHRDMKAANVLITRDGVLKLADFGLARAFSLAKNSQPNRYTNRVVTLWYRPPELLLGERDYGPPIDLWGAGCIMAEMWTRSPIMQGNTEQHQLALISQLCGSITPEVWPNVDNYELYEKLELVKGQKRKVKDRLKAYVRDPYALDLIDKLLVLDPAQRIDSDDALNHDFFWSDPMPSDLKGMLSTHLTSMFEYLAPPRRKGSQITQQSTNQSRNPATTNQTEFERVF
T3 sequence (O60563 whole entry partner): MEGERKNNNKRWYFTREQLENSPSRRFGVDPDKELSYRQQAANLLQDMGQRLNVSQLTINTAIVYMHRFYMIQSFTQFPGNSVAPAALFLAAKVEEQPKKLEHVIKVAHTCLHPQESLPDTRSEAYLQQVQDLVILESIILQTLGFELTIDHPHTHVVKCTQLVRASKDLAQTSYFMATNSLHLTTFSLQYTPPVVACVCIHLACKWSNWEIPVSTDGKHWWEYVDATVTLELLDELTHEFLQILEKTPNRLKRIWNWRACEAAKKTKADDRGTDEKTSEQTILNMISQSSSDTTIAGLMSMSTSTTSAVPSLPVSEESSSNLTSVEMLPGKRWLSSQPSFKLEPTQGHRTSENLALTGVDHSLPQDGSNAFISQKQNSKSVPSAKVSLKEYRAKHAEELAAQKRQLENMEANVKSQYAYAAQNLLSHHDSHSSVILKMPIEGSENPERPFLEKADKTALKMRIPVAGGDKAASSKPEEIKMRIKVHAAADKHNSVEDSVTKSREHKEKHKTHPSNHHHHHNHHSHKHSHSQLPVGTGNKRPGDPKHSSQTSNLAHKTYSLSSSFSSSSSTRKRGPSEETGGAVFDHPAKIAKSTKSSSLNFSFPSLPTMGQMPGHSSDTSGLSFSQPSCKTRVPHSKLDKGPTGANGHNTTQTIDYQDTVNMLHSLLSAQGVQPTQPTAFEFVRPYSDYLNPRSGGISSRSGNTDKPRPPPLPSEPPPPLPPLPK

MAXFLB MCF7 (ER+) = experiment: 2D cell proliferation assay (CellTiter-Blue); assay type: cell-based; conditions: Homo sapiens, 72 h, three days of treatment, read-out: abs. IC50
Experimental: (§1) Viability of the cells was analyzed by using the CellTiter-Blue® Cell Viability Assay (Promega), and was performed according to manufacturer's instructions. Briefly, cells were harvested from exponential phase cultures (Chapter 6.6), counted and plated in 96-well flat-bottom microtiter plates at a cell density of 4,000-60,000 cells/well in a volume of 140 μl per well. After a 24 hours recovery period, 10 μL cell culture medium (six control wells/plate) or culture medium with test compound were added (Chapter 6.2). The compounds were applied at five concentrations in full-log increments up to 100 μM in duplicate. Cultures were incubated at 37° C. and 5% CO2 in a humidified atmosphere for another three days. After three days of treatment, 20 μl/well CellTiter-Blue® reagent was added. Following incubation with CellTiter-Blue® reagent for up to four hours, fluorescence (FU) was measured by using the Enspire Multimode Plate Reader (excitation λ=570 nm, emission λ=600 nm). For calculations, the mean values of duplicate/sextuplicate (untreated control) data were used.
(§2) An assay was considered fully evaluable if the following quality control criteria were fulfilled: • control/background ratio>3.0-Z′-factor calculated within the assay plate>0.5 [7]—coefficient of variation in the growth control wells <30%
(§3) Drug effects were expressed in terms of the percentage of the fluorescence signal, obtained by comparison of the mean signal in the treated wells with the mean signal of the untreated controls (expressed by the test-versus-control value, T/C-value [%]):
(§4) IC values are reported as relative IC50 values and absolute IC50 and IC70 values. […] The absolute IC70 value gives the concentration of the test compound that achieves T/C=30%. The relative IC50 value is the concentration of test compound that gives a response halfway between the top and bottom plateau of the sigmoidal concentration-response curve (inflection point of the curve). Calculation was done by 4parameter non-linear curve fit (Oncotest Data Warehouse Software).
(§5) If an IC50 or IC70 value could not be determined within the examined dose range (because a compound was either too active or lacked activity), the lowest or highest concentration studied was used for calculation of the geometric mean value.

MAXFTN ZR-75-1 (ER+) = experiment: 2D cell proliferation assay (CellTiter-Blue); assay type: cell-based; conditions: Homo sapiens, 72 h, three days of treatment, read-out: abs. IC50
Experimental: as §1, §2, §3, §4, §5

LXFA A549 = experiment: 2D cell proliferation assay (CellTiter-Blue); assay type: cell-based; conditions: Homo sapiens, 72 h, three days of treatment, read-out: abs. IC50
Experimental: as §1, §2, §3, §4, §5

LXFL NCl-H1299 = experiment: 2D cell proliferation assay (CellTiter-Blue); assay type: cell-based; conditions: 72 h, three days of treatment, read-out: abs. IC50
Experimental: as §1, §2, §3, §4, §5

MEXF WM-266-4 = experiment: 2D cell proliferation assay (CellTiter-Blue); assay type: cell-based; conditions: Homo sapiens, 72 h, three days of treatment, read-out: abs. IC50
Experimental: as §1, §2, §3, §4, §5

LEXFAM MV4-11 = experiment: 2D cell proliferation assay (CellTiter-Blue); assay type: cell-based; conditions: Homo sapiens, 72 h, three days of treatment, read-out: abs. IC50
Experimental: as §1, §2, §3, §4, §5

CDK7 CyclinH = CDK7 CyclinH (Homo sapiens, UniProt P50613); experiment: CDK inhibition assay (microfluidic LabChip, IC50 format); assay type: biochemical
Sequence of CDK7 CyclinH (P50613 whole entry): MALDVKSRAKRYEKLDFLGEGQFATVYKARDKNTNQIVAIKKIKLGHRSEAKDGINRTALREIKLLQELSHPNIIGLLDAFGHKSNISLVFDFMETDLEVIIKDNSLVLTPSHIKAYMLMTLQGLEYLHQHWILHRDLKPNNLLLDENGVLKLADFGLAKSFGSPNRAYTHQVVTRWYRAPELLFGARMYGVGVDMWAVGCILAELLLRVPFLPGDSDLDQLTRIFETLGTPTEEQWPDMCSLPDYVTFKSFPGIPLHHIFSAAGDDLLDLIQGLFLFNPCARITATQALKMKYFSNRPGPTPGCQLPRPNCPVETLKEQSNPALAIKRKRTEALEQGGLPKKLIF
Sequence of CDK7 CyclinH (P51946 whole entry partner): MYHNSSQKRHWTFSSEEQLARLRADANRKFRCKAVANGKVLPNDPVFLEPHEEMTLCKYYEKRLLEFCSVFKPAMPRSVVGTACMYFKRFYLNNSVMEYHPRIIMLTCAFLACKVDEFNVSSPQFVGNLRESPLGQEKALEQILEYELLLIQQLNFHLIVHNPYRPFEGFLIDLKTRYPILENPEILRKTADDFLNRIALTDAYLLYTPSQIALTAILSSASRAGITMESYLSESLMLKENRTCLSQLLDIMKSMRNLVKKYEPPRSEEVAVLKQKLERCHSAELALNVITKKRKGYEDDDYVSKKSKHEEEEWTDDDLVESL
Sequence of CDK7 CyclinH (P51948 whole entry partner): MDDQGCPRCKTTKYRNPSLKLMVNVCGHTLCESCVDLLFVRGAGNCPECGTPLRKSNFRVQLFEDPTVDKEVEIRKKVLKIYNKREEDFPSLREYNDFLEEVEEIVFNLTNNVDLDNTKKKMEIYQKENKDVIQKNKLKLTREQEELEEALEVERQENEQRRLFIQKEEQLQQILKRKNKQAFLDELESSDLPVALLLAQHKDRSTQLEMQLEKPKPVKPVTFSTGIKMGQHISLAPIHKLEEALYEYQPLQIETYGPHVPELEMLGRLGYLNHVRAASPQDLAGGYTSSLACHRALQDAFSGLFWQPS

all cell lines tested = experiment: 2D cell proliferation assay, geometric mean over the cell line panel; assay type: cell-based; conditions: Table 5 lower part; geometric mean over the 8-line panel; read-out: Geomean abs. IC50 value
Experimental: as §1, §4, §5
The overall potency of a compound was determined by the geometric mean IC50/IC70 values of all individual IC50/IC70 values. In the heatmap representation of IC50 and IC70 values, the distribution of the IC50 or IC70 values obtained for a test compound in the individual cell lines is given in relation to the geometric mean IC50 or IC70 value, obtained over all PDX models tested. The individual IC values range from 1/32-fold geometric mean IC (corresponding to very potent compound activity or high tumor sensitivity) to 32-fold geometric mean IC (corresponding to lack of compound activity or tumor resistance). The heatmap presentation, therefore, represents an antiproliferative “fingerprint” profile of a test compound.

CDK4-CYCLIND1 = CDK4-CYCLIND1 (Homo sapiens, UniProt P11802); experiment: CDK inhibition assay (microfluidic LabChip, IC50 format); conditions: a second value in parentheses for some compounds
Sequence of CDK4-CYCLIND1 (P11802 whole entry): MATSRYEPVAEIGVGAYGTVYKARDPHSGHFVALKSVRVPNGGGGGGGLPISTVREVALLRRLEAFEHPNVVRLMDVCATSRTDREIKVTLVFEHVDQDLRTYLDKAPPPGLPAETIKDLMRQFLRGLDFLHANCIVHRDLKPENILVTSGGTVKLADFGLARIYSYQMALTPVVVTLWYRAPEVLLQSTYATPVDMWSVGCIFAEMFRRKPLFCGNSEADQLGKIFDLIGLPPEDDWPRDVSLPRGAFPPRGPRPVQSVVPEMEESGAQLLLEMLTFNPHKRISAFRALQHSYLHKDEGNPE
Sequence of CDK4-CYCLIND1 (P24385 whole entry partner): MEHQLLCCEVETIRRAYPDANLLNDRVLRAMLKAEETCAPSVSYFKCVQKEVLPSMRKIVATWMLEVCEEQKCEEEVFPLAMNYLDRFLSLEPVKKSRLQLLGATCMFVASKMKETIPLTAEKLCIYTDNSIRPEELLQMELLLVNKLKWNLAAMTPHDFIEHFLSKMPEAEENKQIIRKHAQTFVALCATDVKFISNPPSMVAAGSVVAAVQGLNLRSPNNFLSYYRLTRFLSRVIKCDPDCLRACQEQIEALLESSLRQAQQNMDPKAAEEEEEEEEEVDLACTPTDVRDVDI

CDK1/B = CDK1/B (Homo sapiens, UniProt P06493); experiment: as above; assay type: biochemical
Sequence of CDK1/B (P06493 whole entry, species assumed): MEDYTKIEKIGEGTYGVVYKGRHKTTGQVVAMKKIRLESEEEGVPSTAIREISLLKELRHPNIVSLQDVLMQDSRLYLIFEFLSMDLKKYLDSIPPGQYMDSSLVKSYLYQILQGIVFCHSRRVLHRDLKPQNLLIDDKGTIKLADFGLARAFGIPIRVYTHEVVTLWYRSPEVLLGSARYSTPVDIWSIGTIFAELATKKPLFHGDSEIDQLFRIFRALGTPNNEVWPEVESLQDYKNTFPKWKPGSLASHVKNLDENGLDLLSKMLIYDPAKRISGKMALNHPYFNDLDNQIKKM
Sequence of CDK1/B (P14635 whole entry partner, species assumed): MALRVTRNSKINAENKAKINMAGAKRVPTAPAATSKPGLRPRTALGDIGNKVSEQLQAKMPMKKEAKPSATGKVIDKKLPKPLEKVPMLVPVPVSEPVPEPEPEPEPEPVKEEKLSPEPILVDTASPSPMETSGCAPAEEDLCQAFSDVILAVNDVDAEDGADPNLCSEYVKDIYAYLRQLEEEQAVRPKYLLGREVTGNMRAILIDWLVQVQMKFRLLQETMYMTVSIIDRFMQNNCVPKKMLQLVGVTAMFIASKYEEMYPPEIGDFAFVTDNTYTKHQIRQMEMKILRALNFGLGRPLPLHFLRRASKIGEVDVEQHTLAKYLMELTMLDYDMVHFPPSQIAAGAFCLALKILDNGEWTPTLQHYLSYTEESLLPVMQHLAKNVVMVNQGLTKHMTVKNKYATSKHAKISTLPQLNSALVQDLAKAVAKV

[1] = CDK4 CyclinD1 IC50, Table 4b, lower part

T1 sequence (Q00534 whole entry): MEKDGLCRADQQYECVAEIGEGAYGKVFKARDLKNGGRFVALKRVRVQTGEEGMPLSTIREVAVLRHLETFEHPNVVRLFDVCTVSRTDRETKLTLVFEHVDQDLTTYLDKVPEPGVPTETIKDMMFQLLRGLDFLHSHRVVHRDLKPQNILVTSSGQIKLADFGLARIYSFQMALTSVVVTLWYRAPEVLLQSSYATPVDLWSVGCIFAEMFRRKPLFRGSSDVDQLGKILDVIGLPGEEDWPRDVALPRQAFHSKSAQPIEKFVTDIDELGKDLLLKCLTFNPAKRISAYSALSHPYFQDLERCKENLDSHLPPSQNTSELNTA
T1 sequence (P30281 whole entry partner): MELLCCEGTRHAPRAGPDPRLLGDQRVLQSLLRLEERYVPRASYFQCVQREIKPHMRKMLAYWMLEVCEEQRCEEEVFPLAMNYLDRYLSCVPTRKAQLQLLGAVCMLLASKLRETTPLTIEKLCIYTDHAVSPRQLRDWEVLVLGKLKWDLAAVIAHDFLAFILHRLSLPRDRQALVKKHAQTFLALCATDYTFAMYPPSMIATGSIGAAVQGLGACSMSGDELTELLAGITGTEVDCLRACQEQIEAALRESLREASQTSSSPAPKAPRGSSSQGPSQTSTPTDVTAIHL

SMILES | IC50 (CDK2-CYCLINA; Table 4a) | IC50 (CDK9-CYCLINT1; Table 4a) | IC50 (CDK7 CyclinH; Table 4a) [nM] | IC50 (CDK4-CYCLIND1; CDK4 CyclinD1 IC50, Table 4a) | IC50 (CDK1/B; Table 4a) [nM] | IC50 (CDK2-CYCLINA; Table 4b, lower part) [nM] | IC50 (CDK4-CYCLIND1; [1]) [nM] | IC50 (CDK9-CYCLINT1; Table 4b, lower part) [nM] | IC50 (CDK7 CyclinH; Table 4b, lower part) [nM] | IC50 (CDK1/B; Table 4b, lower part) [nM] | other results
CN1CCN(c2ccc(Nc3ncc4c(n3)N(C3CCCC3)C(=O)N([C@@H]3CCNC3)C4)cc2)CC1 [Example D74, (R)-1-cyclopentyl-7-((4-(4-methylpiperazin-1-yl)phenyl)amino)-3-(pyrrolidin-3-yl)-3,4-dihydropyrimido[4,5-d]pyrimidin-2(1H)-one] | > 10000 nM | > 10000 nM | > 10000 | 2740 nM | > 10000 |  |  |  |  |  | 
O=C1NCC[C@@]12Cc1cnc(N[C@H]3CC[C@H](NC4CCOCC4)CC3)nc1N(C1CCCC1)C2=O [Example D92, (S)-8-cyclopentyl-2-(((1r,4S)-4-((tetrahydro-2H-pyran-4-yl)amino)cyclohexyl)amino)-5,8-dihydro-7H-spiro[pyrido[2,3-d]pyrimidine-6,3′-pyrrolidine]-2′,7-dione] | 153 nM | < 3.2 nM | 343 | 5.56 nM | 219 |  |  |  |  |  | 
O=C1NCC[C@@]12Cc1cnc(Nc3ccc(N4CCN(C5CC5)CC4)cc3)nc1N(C1CCCC1)C2=O [Example D202, (S)-8-cyclopentyl-2-((4-(4-cyclopropylpiperazin-1-yl)phenyl)amino)-5,8-dihydro-7H-spiro[pyrido[2,3-d]pyrimidine-6,3′-pyrrolidine]-2′,7-dione] |  |  |  |  |  | 40.4 | < 3.2 | > 10000 | 276 | 295 | 
CC(C)C1CCN(c2ccc(Nc3ncc4c(n3)N(C3CCCC3)C(=O)[C@]3(CCNC3=O)C4)cc2)CC1 [Example D201, (S)-8-cyclopentyl-2-((4-(4-isopropylpiperidin-1-yl)phenyl)amino)-5,8-dihydro-7H-spiro[pyrido[2,3-d]pyrimidine-6,3′-pyrrolidine]-2′,7-dione] |  |  |  |  |  | 424 | 5.04 | 7.85 | 2970 | 2850 | 
CN1CCN(c2ccc(Nc3ncc4c(n3)N(C3CCCC3)C(=O)N(c3ccccc3F)C4)cc2F)CC1 [Example D80, 1-cyclopentyl-7-((3-fluoro-4-(4-methylpiperazin-1-yl)phenyl)amino)-3-(2-fluorophenyl)-3,4-dihydropyrimido[4,5-d]pyrimidin-2(1H)-one] | 7590 nM | > 10000 nM | > 10000 | 3.43 nM | > 10000 |  |  |  |  |  | 
CC1CN(c2ccc(Nc3ncc4c(n3)N(C3CCCC3)C(=O)[C@]3(CCNC3=O)C4)cc2)CC(C)N1 (stereo partly drawn) [Example D199, (6S)-8-cyclopentyl-2-((4-(3,5-dimethylpiperazin-1-yl)phenyl)amino)-5,8-dihydro-7H-spiro[pyrido[2,3-d]pyrimidine-6,3′-pyrrolidine]-2′,7-dione] |  |  |  |  |  | 74.6 | < 3.2 | 3.74 | 406 | 353 | 
CN1CCC(c2ccc(Nc3ncc4c(n3)N(C3CCCC3)C(=O)[C@]3(CCNC3=O)C4)cc2)CC1 [Example D135, (S)-8-cyclopentyl-2-((4-(1-methylpiperidin-4-yl)phenyl)amino)-5,8-dihydro-7H-spiro[pyrido[2,3-d]pyrimidine-6,3′-pyrrolidine]-2′,7-dione] |  |  |  |  |  | 89.8 | < 3.2 | 4.31 | 222 | 205 | 

More lines, main results first:

IC50 (CDK2-CYCLINA; Table 4a) | IC50 (CDK9-CYCLINT1; Table 4a) | IC50 (CDK7 CyclinH; Table 4a) [nM] | IC50 (CDK4-CYCLIND1; CDK4 CyclinD1 IC50, Table 4a) | IC50 (CDK1/B; Table 4a) [nM] | IC50 (CDK2-CYCLINA; Table 4b, lower part) [nM] | IC50 (CDK4-CYCLIND1; [1]) [nM] | IC50 (CDK9-CYCLINT1; Table 4b, lower part) [nM] | IC50 (CDK7 CyclinH; Table 4b, lower part) [nM] | IC50 (CDK1/B; Table 4b, lower part) [nM] | SMILES | other results
29.2 nM | 4.84 nM | 229 |  |  |  |  |  |  |  | CN1CCN(c2ccc(Nc3ncc4c(n3)N(C3CCCC3)C(=O)[C@]3(CCNC3=O)C4)cc2)CC1 [Example D144, (S)-8-cyclopentyl-2-((4-(4-methylpiperazin-1-yl)phenyl)amino)-5,8-dihydro-7H-spiro[pyrido[2,3-d]pyrimidine-6,3′-pyrrolidine]-2′,7-dione] | IC50 (CDK6-CYCLIND3): 1.54 nM; IC50 (MAXFLB MCF7 (ER+)): 114 nM; IC50 (MAXFTN ZR-75-1 (ER+)): 100000 nM; IC50 (LXFA A549): 1290 nM; IC50 (LXFL NCl-H1299): 219 nM; IC50 (MEXF WM-266-4): 358 nM; IC50 (LEXFAM MV4-11): 10 nM; IC50 (all cell lines tested): 475 nM
83200 nM and > 10000 nM | 6250 nM and 987 nM | > 100000 | 1270 nM and 188 nM | > 10000 |  |  |  |  |  | CC(C)N1CCN(c2ccc(Nc3ncc4c(n3)N(C3CCCC3)C(=O)[C@]3(CCNC3=O)C4)c(F)c2)CC1 [Example D148, (S)-8-cyclopentyl-2-((2-fluoro-4-(4-isopropylpiperazin-1-yl)phenyl)amino)-5,8-dihydro-7H-spiro[pyrido[2,3-d]pyrimidine-6,3′-pyrrolidine]-2′,7-dione] | IC50 (CDK6-CYCLIND3): 4670 nM
 |  |  |  |  | 1090 | 13.3 | 28.1 | 1240 | 2910 | O=C1NCC[C@@]12Cc1cnc(Nc3ccc(N4CCN(CCO)CC4)c(F)c3)nc1N(C13CC(C1)C3)C2=O [Example D99, (S)-8-(bicyclo[1.1.1]pentan-1-yl)-2-((3-fluoro-4-(4-(2-hydroxyethyl)piperazin-1-yl)phenyl)amino)-5,8-dihydro-7H-spiro[pyrido[2,3-d]pyrimidine-6,3′-pyrrolidine]-2′,7-dione] | 
22.2 nM | 5.25 nM | 120 | 1.04 nM |  |  |  |  |  |  | Cc1cc(Nc2ncc3c(n2)N(C2CCCC2)C(=O)[C@]2(CCNC2=O)C3)ccc1N1CCN(C(C)C)CC1 [Example D158, (S)-8-cyclopentyl-2-((4-(4-isopropylpiperazin-1-yl)-3-methylphenyl)amino)-5,8-dihydro-7H-spiro[pyrido[2,3-d]pyrimidine-6,3′-pyrrolidine]-2′,7-dione] | IC50 (CDK6-CYCLIND3): 2.17 nM; IC50 (MAXFLB MCF7 (ER+)): 55 nM; IC50 (MAXFTN ZR-75-1 (ER+)): 5520 nM; IC50 (LXFA A549): 554 nM; IC50 (LXFL NCl-H1299): 257 nM; IC50 (MEXF WM-266-4): 451 nM; IC50 (LEXFAM MV4-11): 38 nM; IC50 (all cell lines tested): 301 nM
 |  |  |  |  | 4.19 | < 3.2 | 19.3 | 880 | 22 | CS(=O)(=O)N1CCC(Nc2ncc3c(n2)N(C24CC(C2)C4)C(=O)[C@]2(CCNC2=O)C3)CC1 [Example D123, (S)-8-(bicyclo[1.1.1]pentan-1-yl)-2-((1-(methylsulfonyl)piperidin-4-yl)amino)-5,8-dihydro-7H-spiro[pyrido[2,3-d]pyrimidine-6,3′-pyrrolidine]-2′,7-dione] | 
54.5 nM | < 3.2 nM | 134 | < 3.2 nM | 172 |  |  |  |  |  | CN1CCN(C2CCN(c3ccc(Nc4ncc5c(n4)N(C4CCCC4)C(=O)[C@]4(CCNC4=O)C5)cc3F)CC2)CC1 [Example D105, (S)-8-cyclopentyl-2-((3-fluoro-4-(4-(4-methylpiperazin-1-yl)piperidin-1-yl)phenyl)amino)-5,8-dihydro-7H-spiro[pyrido[2,3-d]pyrimidine-6,3′-pyrrolidine]-2′,7-dione] | 

Source: US20230048132A1, “CYCLIN-DEPENDENT KINASE INHIBITORS” (SPV THERAPEUTICS INC., priority 2018, published 2023)
